Kd data for eight molecules are collected here from paper PMC5270475, “Structural Characterization and Ligand/Inhibitor Identification Provide Functional Insights into the Mycobacterium tuberculosis Cytochrome P450 CYP126A1” (The Journal of Biological Chemistry, 2016).

For this assay, the target named is T1, CYP126A1 (Mycobacterium tuberculosis, UniProt P9WPN9).
T1 construct: gene cyp126
T1 sequence (P9WPN9 whole entry): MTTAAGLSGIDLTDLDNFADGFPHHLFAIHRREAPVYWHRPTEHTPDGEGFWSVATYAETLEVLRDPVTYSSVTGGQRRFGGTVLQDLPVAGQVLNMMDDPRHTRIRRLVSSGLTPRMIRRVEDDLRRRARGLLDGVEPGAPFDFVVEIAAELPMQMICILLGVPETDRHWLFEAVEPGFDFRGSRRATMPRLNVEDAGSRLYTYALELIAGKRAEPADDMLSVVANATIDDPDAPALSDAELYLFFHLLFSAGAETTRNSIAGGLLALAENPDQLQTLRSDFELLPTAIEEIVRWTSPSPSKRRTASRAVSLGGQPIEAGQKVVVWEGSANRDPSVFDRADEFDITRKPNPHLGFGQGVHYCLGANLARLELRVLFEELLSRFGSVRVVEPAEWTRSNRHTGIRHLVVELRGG
The experiment in a line: UV-visible absorbance titration (heme Soret shift). Type of assay: binding.
In general, Kd refers to the constant that tells how readily two partners part at equilibrium. With `CC(=O)N1CCN(c2ccc(OC[C@H]3CO[C@](Cn4ccnc4)(c4ccc(Cl)cc4Cl)O3)cc2)CC1` (racemic) [Ketoconazole], the Kd came to 0.34 ± 0.07 µM.
Consider `Clc1ccccc1C(c1ccccc1)(c1ccccc1)n1ccnc1` [Clotrimazole], for which the dissociation constant (Kd) was 3.9 ± 0.4 µM.
Then `Clc1ccc(COC(Cn2ccnc2)c2ccc(Cl)cc2Cl)cc1` (centres unmarked) [Econazole], with 4 ± 0.6 µM; and `c1c[nH]cn1` [Imidazole], with 2590 ± 60 µM.
Consider `Clc1ccc(COC(Cn2ccnc2)c2ccc(Cl)cc2Cl)c(Cl)c1` (centres unmarked) [Miconazole], for which the dissociation constant Kd was found to be 1.3 ± 0.2 µM.
For the molecule `O=C(NCCCn1ccnc1)NC12CC3CC(CC(C3)C1)C2` [compound 7, Compound 7], the Kd is 4.13 ± 0.61 µM.
`Cn1c(-c2ccc(-c3nc4ccccc4[nH]3)cc2)nc2cc(N)ccc21` [compound 8, Compound 8]: the equilibrium dissociation constant (Kd) came to 11 ± 0.6 µM.
In the case of `O=C(O)C1CSC(c2cc3ccccc3nc2Cl)N1` (centres unmarked) [compound 9, Compound 9], the dissociation constant (Kd) was found to be 16.4 ± 0.7 µM.
